# How the values were obtained:
# Experiment in all cases: relative viability (nuclei count vs DMSO), 5 days (fraction); higher = more cells survive
# Afatinib + Luminespib = compound: CN(C)C/C=C/C(=O)Nc1cc2c(Nc3ccc(F)c(Cl)c3)ncnc2cc1O[C@H]1CCOC1 [Afatinib] + CCNC(=O)c1noc(-c2cc(C(C)C)c(O)cc2O)c1-c1ccc(CN2CCOCC2)cc1 [Luminespib] (partner 0.01 µM)
# Outline: (§1)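 Relative viability was taken as the ratio of nuclei in treated wells to nuclei in vehicle wells. Lung cancer cell lines in 1536-well plates received compounds by pin tool one day after seeding, either one drug alone or a fixed anchor-drug dose plus five library-drug doses (not always all listed) in √10 steps. Nuclei were counted on 4× images after 5 days of treatment, and values are medians of duplicate plates.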
# Afatinib + Foretinib = compound: CN(C)C/C=C/C(=O)Nc1cc2c(Nc3ccc(F)c(Cl)c3)ncnc2cc1O[C@H]1CCOC1 [Afatinib] + COc1cc2c(Oc3ccc(NC(=O)C4(C(=O)Nc5ccc(F)cc5)CC4)cc3F)ccnc2cc1OCCCN1CCOCC1 [Foretinib] (partner 0.25 µM)
# Outline: as §1
# Afatinib + Dasatinib = compound: CN(C)C/C=C/C(=O)Nc1cc2c(Nc3ccc(F)c(Cl)c3)ncnc2cc1O[C@H]1CCOC1 [Afatinib] + Cc1nc(Nc2ncc(C(=O)Nc3c(C)cccc3Cl)s2)cc(N2CCN(CCO)CC2)n1 [Dasatinib] (partner 0.075 µM)
# Outline: as §1
# Afatinib + Decitabine = compound: CN(C)C/C=C/C(=O)Nc1cc2c(Nc3ccc(F)c(Cl)c3)ncnc2cc1O[C@H]1CCOC1 [Afatinib] + Nc1ncn([C@H]2C[C@H](O)[C@@H](CO)O2)c(=O)n1 [Decitabine] (partner 2 µM)
# Outline: as §1
Cell Line,relative viability (Afatinib + Luminespib; first compound 0.005 µM),relative viability (Afatinib + Luminespib; first compound 0.01581 µM),relative viability (Afatinib + Luminespib; first compound 0.05 µM),relative viability (Afatinib + Luminespib; first compound 0.1581 µM),relative viability (Afatinib + Luminespib; first compound 0.5 µM),relative viability (Afatinib + Foretinib; first compound 0.005 µM),relative viability (Afatinib + Foretinib; first compound 0.01581 µM),relative viability (Afatinib + Foretinib; first compound 0.05 µM),relative viability (Afatinib + Foretinib; first compound 0.1581 µM),relative viability (Afatinib + Foretinib; first compound 0.5 µM),relative viability (Afatinib + Dasatinib; first compound 0.005 µM),relative viability (Afatinib + Dasatinib; first compound 0.01581 µM),relative viability (Afatinib + Dasatinib; first compound 0.05 µM),relative viability (Afatinib + Dasatinib; first compound 0.1581 µM),relative viability (Afatinib + Dasatinib; first compound 0.5 µM),relative viability (Afatinib + Decitabine; first compound 0.005 µM),relative viability (Afatinib + Decitabine; first compound 0.01581 µM),relative viability (Afatinib + Decitabine; first compound 0.05 µM),relative viability (Afatinib + Decitabine; first compound 0.1581 µM),relative viability (Afatinib + Decitabine; first compound 0.5 µM)
LOU-NH91,0.319,0.295,0.325,0.326,0.311,0.541,0.524,0.592,0.497,0.568,0.399,0.421,0.486,0.424,0.4,0.617,0.672,0.699,0.643,0.697
LU99A,0.198,0.294,0.25,0.343,0.305,0.957,0.818,0.831,0.77,0.785,0.741,0.591,0.594,0.569,0.493,0.903,0.93,0.929,0.873,0.964
LXF-289,0.748,0.604,0.719,0.656,0.564,0.983,0.977,0.905,0.91,0.884,0.238,0.27,0.253,0.208,0.228,0.371,0.356,0.366,0.351,0.365
NCI-H23,0.226,,0.2,0.209,0.216,0.99,1.02,1.02,0.847,0.951,0.682,0.69,0.754,0.884,0.83,0.327,0.314,0.278,0.317,0.309
NCI-H322M,0.705,0.566,0.443,0.496,0.405,0.765,0.566,0.493,0.535,0.449,0.246,0.229,0.231,0.233,0.248,0.637,0.509,0.55,0.502,0.479
NCI-H358,0.27,0.0409,0.189,0.101,0.125,0.512,0.423,0.286,0.167,0.197,0.125,0.111,0.113,0.156,0.128,0.191,0.18,0.149,0.163,0.136
NCI-H441,0.442,0.431,0.325,0.249,0.222,1.22,0.837,0.987,0.742,0.75,0.574,0.488,0.573,0.435,0.402,0.241,0.233,0.225,0.277,0.229
NCI-H460,0.0369,0.0258,0.0533,0.0327,0.032,0.987,0.895,0.943,1.07,0.978,0.531,0.527,0.469,0.467,0.535,0.446,0.464,0.521,0.526,0.551
NCI-H520,0.21,0.264,0.223,0.215,0.234,0.83,0.656,0.698,0.812,0.744,0.199,0.178,0.19,0.225,0.14,0.539,0.454,0.45,0.483,0.413
NCI-H596,1.01,1,0.894,0.778,0.984,0.811,0.952,0.675,0.643,0.873,0.445,0.456,0.643,0.538,0.602,1.02,0.962,1.08,1.1,1.01
NCI-H647,0.169,0.26,0.12,0.183,0.158,1.21,1.1,1.21,1.11,1.14,0.24,0.141,0.201,0.192,0.172,0.459,0.499,0.425,0.315,0.419
NCI-H650,0.841,0.816,0.791,0.814,0.788,1.13,0.997,1.06,1.02,0.998,0.559,0.428,0.481,0.599,0.411,0.321,0.323,0.334,0.334,0.308
NCI-H661,0.994,0.895,0.867,0.674,0.629,1.06,0.874,0.738,0.75,0.625,0.858,0.527,0.375,0.341,0.332,0.502,0.428,0.44,0.391,0.401
NCI-H727,0.404,,0.416,0.282,0.345,0.82,0.588,0.762,0.709,0.752,0.366,,0.204,0.282,0.249,0.826,0.534,0.831,0.761,0.829
NCI-H838,0.346,0.291,0.272,0.217,0.248,1.07,1.01,1.11,1.02,1.26,0.33,0.319,0.331,0.203,0.269,0.496,0.445,0.481,0.451,0.461
NCI-H1355,0.703,0.685,0.642,0.647,0.582,0.947,0.636,0.824,0.773,0.751,0.665,0.742,0.68,0.642,0.643,0.377,0.332,0.341,0.356,0.332

# — the supplement of paper PMC10307832
